Reference: patent US9309198B2, “N-[3-(2-carboxyethyl)phenyl]piperidin-1-ylacetamide derivatives and use thereof as activators of soluble guanylate cyclase” (Bayer Pharma Aktiengesellschaft, priority 2012, dated 2016)
Counter-ions that a name gives are not always drawn.

Molecular target: T1, recombinant guanylate cyclase reporter cell line (sGC, CHO reporter cell) (Rattus norvegicus, UniProt P20595)
T1 construct: expressed in transfected cells; host or cells: CHO reporter cell line
T1 sequence (P20595 1-619): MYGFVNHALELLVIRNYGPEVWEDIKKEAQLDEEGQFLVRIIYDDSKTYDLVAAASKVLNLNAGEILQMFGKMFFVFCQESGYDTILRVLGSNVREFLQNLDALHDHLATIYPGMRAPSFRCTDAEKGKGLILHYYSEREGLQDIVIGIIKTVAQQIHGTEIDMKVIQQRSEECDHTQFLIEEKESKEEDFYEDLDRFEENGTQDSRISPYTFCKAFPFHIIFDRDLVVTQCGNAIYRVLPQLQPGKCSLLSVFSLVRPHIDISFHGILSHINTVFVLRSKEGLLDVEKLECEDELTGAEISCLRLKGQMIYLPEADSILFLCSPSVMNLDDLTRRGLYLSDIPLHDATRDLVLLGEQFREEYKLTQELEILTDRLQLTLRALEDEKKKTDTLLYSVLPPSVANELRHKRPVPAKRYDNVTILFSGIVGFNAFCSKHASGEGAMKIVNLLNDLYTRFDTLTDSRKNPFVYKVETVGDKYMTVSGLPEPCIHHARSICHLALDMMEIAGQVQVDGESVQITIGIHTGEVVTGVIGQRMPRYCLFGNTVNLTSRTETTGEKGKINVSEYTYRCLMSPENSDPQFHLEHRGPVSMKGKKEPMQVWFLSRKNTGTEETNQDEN
T1 sequence (P19686 1-690 partner): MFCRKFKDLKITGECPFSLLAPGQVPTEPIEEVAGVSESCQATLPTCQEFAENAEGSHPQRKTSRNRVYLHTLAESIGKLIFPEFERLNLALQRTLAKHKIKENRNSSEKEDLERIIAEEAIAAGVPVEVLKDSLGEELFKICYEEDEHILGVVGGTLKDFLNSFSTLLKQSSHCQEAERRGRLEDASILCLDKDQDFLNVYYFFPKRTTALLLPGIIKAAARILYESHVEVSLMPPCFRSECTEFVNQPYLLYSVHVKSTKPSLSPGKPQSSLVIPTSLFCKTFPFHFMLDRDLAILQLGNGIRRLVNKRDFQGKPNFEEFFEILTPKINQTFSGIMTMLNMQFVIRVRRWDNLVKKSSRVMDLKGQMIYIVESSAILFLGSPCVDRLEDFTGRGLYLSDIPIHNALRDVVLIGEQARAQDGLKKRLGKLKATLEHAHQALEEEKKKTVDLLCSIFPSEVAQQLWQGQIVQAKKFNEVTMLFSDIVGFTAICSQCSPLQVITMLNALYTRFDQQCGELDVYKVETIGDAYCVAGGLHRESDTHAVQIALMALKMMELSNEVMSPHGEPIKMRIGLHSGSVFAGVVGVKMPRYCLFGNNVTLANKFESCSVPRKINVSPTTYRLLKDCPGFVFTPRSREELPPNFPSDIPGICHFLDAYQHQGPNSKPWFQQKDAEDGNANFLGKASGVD
Assay: Effect on a recombinant guanylate cyclase reporter cell line (CHO reporter cell)
Type: cell-based
Experimental: B-2. Effect on a Recombinant Guanylate Cyclase Reporter Cell Line The cellular activity of the compounds according to the invention is determined using a recombinant guanylate cyclase reporter cell line, as described in F. Wunder et al., Anal. Biochem. 339, 104-112 (2005).

Row | Structure (SMILES) | MEC (minimum effective concentration), sGC-activating activity in the CHO reporter cell in vitro [nM]
1 | COC1CCN(C(C(=O)Nc2cc(CC3(C(=O)O)CC3)ccc2F)C2CCCC2)CC1 (racemic) [Example 52, rac-1-(3-{[Cyclopentyl(4-methoxypiperidin-1-yl)acetyl]amino}-4-fluorobenzyl)cyclopropanecarboxylic acid trifluoroacetate] | 3000
2 | CC(C(C(=O)Nc1cc(CC2(C(=O)O)CC2)ccc1F)N1CCCCC1)C(F)(F)F (single isomer, unassigned) [Example 2, 1-(4-fluoro-3-{[4,4,4-trifluoro-3-methyl-2-(piperidin-1-yl)butanoyl]amino}benzyl)cyclopropanecarboxylic acid] | 20
3 | CC1CCN(C(C(=O)Nc2cc(CC3(C(=O)O)CC3)ccc2F)C(C)C(F)(F)F)CC1 (single isomer, unassigned) [Example 4, 1-(4-fluoro-3-{[4,4,4-trifluoro-3-methyl-2-(4-methylpiperidin-1-yl)butanoyl]amino}benzyl)cyclopropanecarboxylic acid] | 5
4 | CCC1CCN(C(C(=O)Nc2cc(CCC(=O)O)ccc2F)C(C)C(F)(F)F)CC1 (single isomer, unassigned) [Example 9, 3-(3-{[2-(4-ethylpiperidin-1-yl)-4,4,4-trifluoro-3-methylbutanoyl]amino}-4-fluorophenyl)propanoic acid] | 10
5 | CCC1CCN([C@H](C(=O)Nc2cc(CC3(C(=O)O)CC3)ccc2F)[C@H](C)C(F)(F)F)CC1 (single isomer, unassigned) [Example 38] | 300
6 | CCC1CCN([C@H](C(=O)Nc2cc(CCC(=O)O)ccc2F)[C@H](C)C(F)(F)F)CC1 (single isomer, unassigned) [Example 40] | 1000
7 | CCC1CCN([C@@H](C(=O)Nc2cc(CCC(=O)O)ccc2F)[C@@H](C)C(F)(F)F)CC1 (single isomer, unassigned) [Example 41] | 10
8 | CC(C(C(=O)Nc1cc(CC2(C(=O)O)CC2)ccc1F)N1CCCCC1)C(F)(F)F (single isomer, unassigned; (+)) [Example 35, (+)-1-(4-Fluoro-3-{[4,4,4-trifluoro-3-methyl-2-(piperidin-1-yl)butanoyl]amino}benzyl)cyclopropanecarboxylic acid] | 30
9 | CC(C(C(=O)Nc1cc(CC2(C(=O)O)CC2)ccc1F)N1CCCCC1)C(F)(F)F (stereo not drawn) [Example 3] | 60
10 | CC(C(C(=O)Nc1cc(CCC(=O)O)ccc1F)N1CCC2(CC1)CC2)C(F)(F)F (stereo not drawn) [Example 15] | 10
11 | C[C@H]([C@H](C(=O)Nc1cc(CCC(=O)O)ccc1F)N1CCC2(CC1)CC2)C(F)(F)F [Example 16] | 50
12 | C[C@H]([C@H](C(=O)Nc1cc(CCC(=O)O)ccc1Cl)N1CCC2(CC1)CC2)C(F)(F)F [Example 19] | 3
13 | C[C@H]([C@H](C(=O)Nc1cc(CCC(=O)O)ccc1F)N1CCC(c2ccccc2)CC1)C(F)(F)F [Example 22] | 300
14 | C[C@H]([C@H](C(=O)Nc1cc(C[C@H](C)C(=O)O)ccc1F)N1CCC2(CC1)CC2)C(F)(F)F [Example 28] | 20

Next, values leading:

Row | MEC (minimum effective concentration), sGC-activating activity in the CHO reporter cell in vitro [nM] | Structure (SMILES)
15 | 20 | CC1CCN(C(C(=O)Nc2cc(CCC(=O)O)ccc2Cl)C(C)C(F)(F)F)CC1 (racemic) [Example 1, 3-(4-Chloro-3-{[4,4,4-trifluoro-3-methyl-2-(4-methylpiperidin-1-yl)butanoyl]amino}phenyl)propanoic acid]
16 | 60 | CC1CCN(C(C(=O)Nc2cc(CCC(=O)O)ccc2F)C(C)C(F)(F)F)CC1 (single isomer, unassigned) [Example 6, 3-(4-fluoro-3-{[4,4,4-trifluoro-3-methyl-2-(4-methylpiperidin-1-yl)butanoyl]amino}phenyl)propanoic acid]
17 | 30 | CC1CCN(C(C(=O)Nc2cc(CCC(=O)O)ccc2Cl)C(C)C(F)(F)F)CC1 (single isomer, unassigned) [Example 13, 3-(4-chloro-3-{[4,4,4-trifluoro-3-methyl-2-(4-methylpiperidin-1-yl)butanoyl]amino}phenyl)propanoic acid]
18 | 300 | CC1CCN([C@H](C(=O)Nc2cc(CCC(=O)O)ccc2Cl)[C@H](C)C(F)(F)F)CC1 (single isomer, unassigned) [Example 42]
19 | 10 | CC1CCN([C@@H](C(=O)Nc2cc(CCC(=O)O)ccc2Cl)[C@@H](C)C(F)(F)F)CC1 (single isomer, unassigned) [Example 43]
20 | 1000 | CCC1CCN([C@H](C(=O)Nc2cc(CCC(=O)O)ccc2Cl)[C@H](C)C(F)(F)F)CC1 (single isomer, unassigned) [Example 44]
21 | 3 | CCC1CCN([C@@H](C(=O)Nc2cc(CCC(=O)O)ccc2Cl)[C@@H](C)C(F)(F)F)CC1 (single isomer, unassigned) [Example 45]
22 | 3 | CC1CCN([C@@H](C(=O)Nc2cc([C@@H](C)CC(=O)O)ccc2Cl)[C@@H](C)C(F)(F)F)CC1 (single isomer, unassigned) [Example 49]
23 | 10 | C[C@H]([C@H](C(=O)Nc1cc([C@@H](C)CC(=O)O)ccc1Cl)N1CCC2(CC1)CC2)C(F)(F)F (single isomer, unassigned) [Example 50]
24 | 200 | CC1CCN(C(C(=O)Nc2cc(CCC(=O)O)ccc2F)C(C)C(F)(F)F)CC1.O=C(O)C(F)(F)F (single isomer, unassigned; (+)) [Example 37, (+)-3-(4-Fluoro-3-{[4,4,4-trifluoro-3-methyl-2-(4-methylpiperidin-1-yl)butanoyl]amino}phenyl)propanoic acid trifluoroacetate]
25 | 30 | CC1CCN(C(C(=O)Nc2cc(CCC(=O)O)ccc2F)C(C)C(F)(F)F)CC1 (stereo not drawn) [Example 5]
26 | 60 | CC1CCN([C@@H](C(=O)Nc2cc(CCC(=O)O)ccc2F)[C@@H](C)C(F)(F)F)CC1 [Example 7]
27 | 30 | CCC1CCN(C(C(=O)Nc2cc(CCC(=O)O)ccc2F)C(C)C(F)(F)F)CC1 (stereo not drawn) [Example 10]
28 | 30 | CCC1CCN(C(C(=O)Nc2cc(CCC(=O)O)ccc2Cl)C(C)C(F)(F)F)CC1 (stereo not drawn) [Example 12]
29 | 30 | CC(C(C(=O)Nc1cc(CCC(=O)O)ccc1Cl)N1CCC(C(F)(F)F)CC1)C(F)(F)F (stereo not drawn) [Example 14]
30 | 3 | C[C@H]([C@H](C(=O)Nc1cc(CCC(=O)O)ccc1Cl)N1CCC(C(F)(F)F)CC1)C(F)(F)F [Example 17]
31 | 3 | C[C@H]([C@H](C(=O)Nc1cc([C@@H](C)CC(=O)O)ccc1Cl)N1CCC(C(F)(F)F)CC1)C(F)(F)F [Example 23]
32 | 100 | C[C@H]([C@H](C(=O)Nc1cc(CCC(=O)O)ccc1F)N1CCC(C(F)(F)F)CC1)C(F)(F)F [Example 24]
33 | 30 | C[C@H](Cc1ccc(Cl)c(NC(=O)[C@@H]([C@@H](C)C(F)(F)F)N2CCC3(CC2)CC3)c1)C(=O)O [Example 29]
